Patent publication US20080125496A1, “ANTIMICROBIAL FLAVOR AND ORAL CARE COMPOSITION CONTAINING THE SAME” (TAKASAGO INTERNATIONAL CORPORATION, priority 2001, published 2008)
Values after ≈ are worked out from the molar mass of the structure shown. Read-outs that look alike come from different tables or passages of the source.

Columns and labels:
Assay type in all cases: cell-based
[1] = system: Streptococcus mutans JCM 5175; test: MIC by agar plate dilution method, Su-1; details: for MIC: Streptococcus mutans, read-out: MIC Su-1 (caries-related bacteria)
Procedure: (§1) The minimum inhibitory activities of the antimicrobial flavors of the invention on anaerobic oral bacteria were measured by an agar plate dilution method.
(§2) All the test strains were obtained from Riken (The Institute of Physical and Chemical Research). The names and abbreviations of the strains are shown in Table 1 below (The abbreviations are used in the following description).
(§3) Each test microorganism kept frozen (−80° C.) in glycerol at a concentration of 25% was thawed. A 100 μl portion of the suspension was inoculated into 10 ml of a liquid medium. A Gifu university anaerobic medium (GAM) (Nissui Pharmaceutical Co., Ltd) having added thereto Hemin (Tokyo Kasei) and Menadione (Sigma) was used for Su-1 and Fn-1. Schaedler Broth (BBL) having added thereto Hemin and Menadione was used for the other strains. The culture was anaerobically incubated at 37° C. for 72 hours by using BBL Gas Pack Anaerobic System. After the cultivation, the microbial cell suspension of Su-1 was 10-fold diluted to prepare an inoculum. The cultures of Fn-1 and Pg-1 were used as such as an inoculum. The cultures of Pt-1, Aa-1, and Av-1 were subjected to centrifugation, and the separated microbial cells were suspended in 2 ml of sterilized physiological saline to prepare the respective inoculums.
(§4) An agar medium prepared by adding 2% agar (Difco), Hemin, and Menadione to Trypticase Soy Broth (BBL) was used. A test sample (antimicrobial flavor) was dissolved in ethanol to prepare 2-fold serial dilutions. To 10 ml of the agar medium was added 100 μl of each dilution and stirred well. The agar medium was transferred to a petri dish (diameter: 9 cm) and solidified at room temperature. The solidified agar medium was inoculated with 5 μl of the inoculum by means of a multipoint inoculator (Microplanter MIT-P27, supplied by Sakuma Seisakusho), followed by culturing at 37° C. for 72 hours under anaerobic conditions. The growth of the test microorganism was compared with a blank petri dish (the agar medium to which 100 μl of ethanol had been added). The lowest sample concentration that inhibited growth was taken as MIC (ppm).
(§5) Antimicrobial activities (MIC; ppm) of the aromahygiene base (AHB) prepared in (1) and the antimicrobial flavor compositions prepared in (2) (Examples 2-1 to 2-3) and Comparative Examples 2-1 to 2-3 were measured in the same manner as in Example 1 (2).

[2] = system: Actinomyces naeslundii JCM 8350; test: MIC by agar plate dilution method, Aa-1; details: for MIC: Actinomyces naeslundii, read-out: MIC Aa-1 (caries-related bacteria)
Procedure: as §1, §2, §3, §4, §5

[3] = system: Actinomyces viscosus JCM 8352; test: MIC by agar plate dilution method, Av-1; details: for MIC: Actinomyces viscosus, read-out: MIC Av-1 (caries-related bacteria)
Procedure: as §1, §2, §3, §4, §5

[4] = system: Fusobacterium nucleatum JCM 6328; test: MIC by agar plate dilution method, Fn-1; details: for MIC: Fusobacterium nucleatum, read-out: MIC Fn-1 (paradentosis-related bacteria)
Procedure: as §1, §2, §3, §4, §5

[5] = system: Porphyromonas gingivalis JCM 8525; test: MIC by agar plate dilution method, Pg-1; details: for MIC: Porphyromonas gingivalis, read-out: MIC Pg-1 (paradentosis-related bacteria; head Fg-1 in Tables 2 and 3)
Procedure: as §1, §2, §3, §4, §5

[6] = system: Prevotella intermedia JCM 6322; test: MIC by agar plate dilution method, Pt-1; details: for MIC: Prevotella intermedia, read-out: MIC Pt-1 (paradentosis-related bacteria)
Procedure: as §1, §2, §3, §4, §5

[7] = JCM5175, agar medium, 37° C., 72 hours, anaerobic conditions
[8] = JCM8350, agar medium, 37° C., 72 hours, anaerobic conditions
[9] = JCM8352, agar medium, 37° C., 72 hours, anaerobic conditions
[10] = JCM6328, agar medium, 37° C., 72 hours, anaerobic conditions
[11] = JCM8525, agar medium, 37° C., 72 hours, anaerobic conditions
[12] = JCM6322, agar medium, 37° C., 72 hours, anaerobic conditions
[13] = agar medium, 37° C., 72 hours, anaerobic conditions

Structure (SMILES) | MIC [1, 7] [µg/mL] | MIC [2, 8] [µg/mL] | MIC [3, 9] [µg/mL] | MIC [4, 10] [µg/mL] | MIC [5, 11] [µg/mL] | MIC [6, 12] [µg/mL] | MIC Su-1 (caries-related bacteria) [1, 13] [ppm] | MIC Aa-1 (caries-related bacteria) [2, 13] [ppm] | MIC Av-1 (caries-related bacteria) [3, 13] [ppm] | MIC Fn-1 (paradentosis-related bacteria) [4, 13] [ppm] | MIC Pg-1 (paradentosis-related bacteria; head Fg-1 in Tables 2 and 3) [5, 13] [ppm] | other results
CCCCCCCCCO [1-nonanol] | 1000 (≈ 6930 µM) | 500 (≈ 3470 µM) | 500 (≈ 3470 µM) | 500 (≈ 3470 µM) | 250 (≈ 1730 µM) | 250 (≈ 1730 µM) | – | – | – | – | – | –
CCCCCCCCC(C)C=O (stereo not shown) [2-Methyl decanal] | 500 (≈ 2940 µM) | 250 (≈ 1470 µM) | 500 (≈ 2940 µM) | 500 (≈ 2940 µM) | 62.5 (≈ 367 µM) | 125 (≈ 734 µM) | – | – | – | – | – | –
CCCCCCCCCC(C)C=O (stereo not shown) [2-Methyl undecanal] | 250 (≈ 1360 µM) | 125 (≈ 678 µM) | 125 (≈ 678 µM) | 125 (≈ 678 µM) | 62.5 (≈ 339 µM) | 62.5 (≈ 339 µM) | – | – | – | – | – | –
CCCCCCCCC=CCC=O [3-Dodecenal] | 1000 (≈ 5490 µM) | 500 (≈ 2740 µM) | 500 (≈ 2740 µM) | 250 (≈ 1370 µM) | 62.5 (≈ 343 µM) | 31.3 (≈ 172 µM) | – | – | – | – | – | –
CC1CCC(C(C)C)C(OCC(O)CO)C1 (stereo not shown) [3-Menthoxypropane-1,2-diol] | 1000 (≈ 4340 µM) | 500 (≈ 2170 µM) | 62.5 (≈ 271 µM) | 1000 (≈ 4340 µM) | 250 (≈ 1090 µM) | – | – | – | – | – | – | –
O=C1CCCC=CCCCCCCCCCC1 [5-cyclohexadecen-1-one] | > 1000 | > 1000 | > 1000 | > 1000 | 15.6 (≈ 66 µM) | 31.3 (≈ 132 µM) | – | – | – | – | – | –
C=CCCCCCCCCO [9-decen-1-ol] | 1000 (≈ 6400 µM) | 250 (≈ 1600 µM) | 250 (≈ 1600 µM) | 250 (≈ 1600 µM) | 125 (≈ 800 µM) | 62.5 (≈ 400 µM) | – | – | – | – | – | –
C=CCCCCCCCCCO [10-undecen-1-ol] | 250 (≈ 1470 µM) | 125 (≈ 734 µM) | 125 (≈ 734 µM) | 125 (≈ 734 µM) | 31.3 (≈ 184 µM) | 31.3 (≈ 184 µM) | – | – | – | – | – | –
CC(=O)C1=C(C)[C@@H]2C[C@@]3(C1)[C@H](C)CC[C@H]3C2(C)C [Acetyl cedrene] | – | – | – | – | – | – | 250 | 31.3 | 31.3 | 500 | 15.6 | –
CC1(C)CCC[C@]2(C)[C@H]3CCO[C@]3(C)CC[C@@H]12 [Ambroxan] | – | – | – | – | – | – | >1000 | >1000 | >1000 | >1000 | 31.3 | MIC Pt-1 (paradentosis-related bacteria) [6, 13]: 31.3 ppm
CC/C(=C\CC1CC=C(C)C1(C)C)CO (stereo not shown) [Bacdanol] | – | – | – | – | – | – | 125 | 125 | 62.5 | 62.5 | 31.3 | –
CC1=CCC(CCC(C)CO)C1(C)C (stereo not shown) [Brahmanol] | – | – | – | – | – | – | 250 | 125 | 125 | 250 | 31.3 | MIC Pt-1 (paradentosis-related bacteria) [6, 13]: 31.3 ppm
CC1C(C)(C)C2=C(C(=O)CCC2)C1(C)C (stereo not shown) [Cashmerane] | – | – | – | – | – | – | >1000 | 1000 | 1000 | >1000 | 250 | MIC Pt-1 (paradentosis-related bacteria) [6, 13]: 250 ppm
C[C@@H]1CC[C@H]2C(C)(C)[C@H]3C[C@@]12CC[C@@]3(C)O [Cedrol] | > 1000 | > 1000 | > 1000 | > 1000 | 31.3 (≈ 141 µM) | 31.3 (≈ 141 µM) | – | – | – | – | – | –
CC(=O)O[C@]1(C)CC[C@@]23C[C@@H]1C(C)(C)[C@@H]2CC[C@H]3C [Cedryl acetate] | – | – | – | – | – | – | – | – | – | – | – | MIC ([1]; JCM5175, 72 h): > 1000 µg/mL; MIC ([2]; JCM8350, 72 h): > 1000 µg/mL; MIC ([3]; JCM8352, 72 h): > 1000 µg/mL; MIC ([4]; JCM6328, 72 h): > 1000 µg/mL; MIC ([5]; JCM8525, 72 h): 31.3 µg/mL; MIC ([6]; JCM6322, 72 h): 62.5 µg/mL
COC(/C=C/c1ccccc1)OC [Cinnamic aldehyde dimethyl acetal] | – | – | – | – | – | – | 250 | 125 | 250 | 500 | <15.6 | MIC Pt-1 (paradentosis-related bacteria) [6, 13]: 62.5 ppm
O=C1CCCCCCCCCCCCCCO1 [Cyclopentadecanolide] | – | – | – | – | – | – | >1000 | >1000 | >1000 | >1000 | <62.5 | MIC Pt-1 (paradentosis-related bacteria) [6, 13]: <62.5 ppm
O=C1CCCCCCCCCCCCCC1 [Cyclopentadecanone] | – | – | – | – | – | – | – | – | – | – | – | MIC ([1]; JCM5175, 72 h): > 1000 µg/mL; MIC ([2]; JCM8350, 72 h): > 1000 µg/mL; MIC ([3]; JCM8352, 72 h): > 1000 µg/mL; MIC ([4]; JCM6328, 72 h): > 1000 µg/mL; MIC ([5]; JCM8525, 72 h): < 62.5 µg/mL; MIC ([6]; JCM6322, 72 h): < 62.5 µg/mL
C=C(C)[C@@H]1CCC2=CC(=O)C[C@@H](C)[C@]2(C)C1 [Nootkatone] | 1000 (≈ 4580 µM) | 62.5 (≈ 286 µM) | 62.5 (≈ 286 µM) | 500 (≈ 2290 µM) | 7.8 (≈ 35.7 µM) | – | – | – | – | – | – | –
C=C(C)[C@@H]1CC=C(CO)CC1 [Perilla alcohol] | 500 (≈ 3280 µM) | 250 (≈ 1640 µM) | 500 (≈ 3280 µM) | 500 (≈ 3280 µM) | 125 (≈ 821 µM) | – | – | – | – | – | – | –
CCCCCCCC/C=C/C=O [Trans-2-undecenal] | 250 (≈ 1490 µM) | 125 (≈ 743 µM) | 125 (≈ 743 µM) | 1000 (≈ 5940 µM) | – | – | – | – | – | – | – | –
CCCCCCCCCCC=O [Undecanal] | 1000 (≈ 5870 µM) | 500 (≈ 2940 µM) | 500 (≈ 2940 µM) | 500 (≈ 2940 µM) | 125 (≈ 734 µM) | – | – | – | – | – | – | –
